In PubChem BioAssay (NCI):
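Method: 48-hour compound exposure of cells in 96-well plates, five concentrations, linear interpolation of endpoints. TGI marks complete inhibition of growth.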

Columns and labels:
Assay in all cases: NCI tumour cell line growth inhibition, 48 h
KM12 colon = test system: KM12 colon
IGROV1 ovarian = test system: IGROV1 ovarian
SF-539 CNS = test system: SF-539 CNS
RPMI-8226 leukemia = test system: RPMI-8226 leukemia
OVCAR-8 ovarian = test system: OVCAR-8 ovarian
HOP-62 NSCLC = test system: HOP-62 NSCLC
SR leukemia = test system: SR leukemia
HS 578T breast = test system: HS 578T breast
SK-MEL-5 melanoma = test system: SK-MEL-5 melanoma
HT29 colon = test system: HT29 colon
NCI-H522 lung = test system: NCI-H522 lung
UACC-62 melanoma = test system: UACC-62 melanoma
786-0 renal = test system: 786-0 renal
DU-145 prostate = test system: DU-145 prostate
SN12C renal = test system: SN12C renal
MDA-N = test system: MDA-N
COLO 205 colon = test system: COLO 205 colon
A498 renal = test system: A498 renal
OVCAR-3 ovarian = test system: OVCAR-3 ovarian
CAKI-1 renal = test system: CAKI-1 renal
SNB-75 CNS = test system: SNB-75 CNS
MALME-3M melanoma = test system: MALME-3M melanoma
UACC-257 melanoma = test system: UACC-257 melanoma
BT-549 breast = test system: BT-549 breast
SF-295 CNS = test system: SF-295 CNS
SK-MEL-2 melanoma = test system: SK-MEL-2 melanoma
MDA-MB-435 = test system: MDA-MB-435
HOP-92 NSCLC = test system: HOP-92 NSCLC
MCF7 breast = test system: MCF7 breast
NCI-H226 lung = test system: NCI-H226 lung
RXF 393 renal = test system: RXF 393 renal
MDA-MB-231 breast = test system: MDA-MB-231 breast
HCC-2998 colon = test system: HCC-2998 colon
T-47D breast = test system: T-47D breast
LOX IMVI melanoma = test system: LOX IMVI melanoma
SNB-19 CNS = test system: SNB-19 CNS
CCRF-CEM leukemia = test system: CCRF-CEM leukemia
U251 CNS = test system: U251 CNS
A549 NSCLC = test system: A549 NSCLC
UO-31 renal = test system: UO-31 renal
NCI-H460 lung = test system: NCI-H460 lung
M14 melanoma = test system: M14 melanoma
OVCAR-4 ovarian = test system: OVCAR-4 ovarian
MOLT-4 leukemia = test system: MOLT-4 leukemia
SF-268 CNS = test system: SF-268 CNS
OVCAR-5 ovarian = test system: OVCAR-5 ovarian
NCI-H23 lung = test system: NCI-H23 lung
HL-60(TB) leukemia = test system: HL-60(TB) leukemia
SK-OV-3 ovarian = test system: SK-OV-3 ovarian
NCI/ADR-RES ovarian = test system: NCI/ADR-RES ovarian
HCT-116 colon = test system: HCT-116 colon
SW-620 colon = test system: SW-620 colon
HCT-15 colon = test system: HCT-15 colon
SK-MEL-28 melanoma = test system: SK-MEL-28 melanoma
TK-10 renal = test system: TK-10 renal
ACHN renal = test system: ACHN renal
PC-3 prostate = test system: PC-3 prostate
EKVX NSCLC = test system: EKVX NSCLC
K-562 leukemia = test system: K-562 leukemia

Measured: TGI

CC1=C(C(=O)OC23CC4CC(CC(C4)C2)C3)C(c2ccccc2OC(F)F)C(C(=O)OC23CC4CC(CC(C4)C2)C3)=C(C)N1 (configuration not stated)
not listed: TK-10 renal | ACHN renal | PC-3 prostate | EKVX NSCLC | K-562 leukemia
> 100 µM: all other assays above

CCOC(=O)C(NC(=O)NCc1ccc(F)cc1)C(F)(F)F (configuration not stated)
not listed: KM12 colon | HOP-62 NSCLC | NCI-H522 lung | UACC-62 melanoma | DU-145 prostate | OVCAR-3 ovarian | CAKI-1 renal | MALME-3M melanoma | SF-295 CNS | HOP-92 NSCLC | MCF7 breast | NCI-H226 lung | MDA-MB-231 breast | NCI-H460 lung | OVCAR-4 ovarian | MOLT-4 leukemia
> 100 µM: all other assays above
